Results on four compounds are retold here after patent publication US20080214560A1, “Use of Pyrimidine Derivatives in the Manufacture of a Medicament for Prevention and/or Treatment of Alzheimer's Disease” (AstraZeneca AB, priority 2005, published 2008).

SMILES strings stand for the structures. Counter-ions that a name gives are not always drawn.

T1 sequence (P49841 whole entry): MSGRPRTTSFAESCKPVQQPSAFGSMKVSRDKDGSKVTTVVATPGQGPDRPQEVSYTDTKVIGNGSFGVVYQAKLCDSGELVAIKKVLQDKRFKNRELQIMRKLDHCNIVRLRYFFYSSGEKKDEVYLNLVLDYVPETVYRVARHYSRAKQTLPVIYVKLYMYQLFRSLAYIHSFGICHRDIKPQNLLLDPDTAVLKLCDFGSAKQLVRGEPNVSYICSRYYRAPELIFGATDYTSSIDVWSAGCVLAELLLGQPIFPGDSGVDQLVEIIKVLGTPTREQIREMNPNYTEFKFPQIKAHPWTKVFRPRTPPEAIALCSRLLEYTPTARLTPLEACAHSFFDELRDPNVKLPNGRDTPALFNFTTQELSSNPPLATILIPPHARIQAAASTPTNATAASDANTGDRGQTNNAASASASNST

The assay concerns the target T1, recombinant human GSK3β (Homo sapiens, UniProt P49841).
T1 construct: purchased Dundee University, UK
In words: GSK3β Scintillation Proximity Assay (ATP competition). The class given is biochemical. The conditions noted are these: SPA, 1 μM ATP, Km of ATP 20 μM used to calculate Ki. The procedure:
Determination of ATP Competition in Scintillation Proximity GSK3β Assay.
GSK3β Scintillation Proximity Assay.
The competition experiments were carried out in duplicate with 10 different concentrations of the inhibitors in clear-bottom microtiter plates (Wallac, Finland). A biotinylated peptide substrate, Biotin-Ala-Ala-Glu-Glu-Leu-Asp-Ser-Arg-Ala-Gly-Ser(PO3H2)-Pro-Gln-Leu (AstraZeneca, Lund), was added at a final concentration of 1 μM in an assay buffer containing 1 mU recombinant human GSK3β (Dundee University, UK), 12 mM morpholinepropanesulfonic acid (MOPS), pH 7.0, 0.3 mM EDTA, 0.01% β-mercaptorethanol, 0.004% Brij 35 (a […] detergent), 0.5% glycerol and 0.5 μg BSA/25 μl. The reaction was initiated by the addition of 0.04 μCi [γ-^33P]ATP (Amersham, UK) and unlabelled ATP at a final concentration of 1 μM and assay volume of 25 μL. After incubation for 20 minutes at room temperature, each reaction was terminated by the addition of 25 μl stop solution containing 5 mM EDTA, 50 μM ATP, 0.1% Triton X-100 and 0.25 mg streptavidin coated Scintillation Proximity Assay (SPA) beads (Amersham, UK). After 6 hours the radioactivity was determined in a liquid scintillation counter (1450 MicroBeta Trilux, Wallac). The inhibition curves were analysed by non-linear regression using GraphPad Prism, USA. The Km value of ATP for GSK3β, used to calculate the inhibition constants (Ki) of the various compounds, was 20 μM.
Turning to `Cc1ncc(-c2nc(Nc3ccc(C(=O)c4ccccn4)cc3)ncc2F)n1C(C)C` [Example 2, (4-{[5-Fluoro-4-(1-isopropyl-2-methyl-1H-imidazol-5-yl)pyrimidin-2-yl]amino}phenyl)(pyridin-2-yl)methanone hydrochloride], the inhibition constant Ki was 1.3 nM.
As for `Cc1ncc(-c2nc(Nc3ccc(C(=O)N4CCN(C)CC4)cc3)ncc2F)n1C(C)C` [Example 13, 5-Fluoro-4-(1-isopropyl-2-methyl-1H-imidazol-5-yl)-N-{4-[(4-methylpiperazin-1-yl)carbonyl]phenyl}pyrimidin-2-amine hydrochloride], the figure is 3.8 nM; as for `Cc1cc(S(=O)(=O)N2CCN(C)CC2)ccc1Nc1ncc(F)c(-c2cnc(C)n2C(C)C)n1` [Example 5, 5-Fluoro-4-(1-isopropyl-2-methyl-1H-imidazol-5-yl)-N-{2-methyl-4-[(4-methylpiperazin-1-yl)sulfonyl]phenyl}pyrimidin-2-amine hydrochloride], 24 nM; as for `COc1cc(Nc2ncc(F)c(-c3cnc(C)n3C(C)C)n2)ccc1C(=O)N1CCN(C)CC1` [Example 11, 5-Fluoro-4-(1-isopropyl-2-methyl-1H-imidazol-5-yl)-N-{3-methoxy-4-[(4-methylpiperazin-1-yl)carbonyl]phenyl}pyrimidin-2-amine hydrochloride], 25 nM.

Broadly, the Ki is a dissociation constant, usually derived from enzyme kinetics or from competition with a known ligand.
